{
  "source": "patent US11160791B2",
  "about": "“Dexmedetomidine injection premix formulation in ready to use (RTU) bags” (Medefil, Inc., priority 2018, dated 2021)",
  "origin": "cited, not measured here",
  "data": [
    {"molecule": "Cc1cccc([C@H](C)c2cnc[nH]2)c1C", "note": "[dexmedetomidine]", "values": [
      {"measurement": "drug loss with a buffer", "setting": "plastic containers, buffer system in the formulation, same prior patents", "result": "~10", "unit": "%"},
      {"measurement": "dexmedetomidine loss when sodium chloride is used", "setting": "plastic containers, even with buffers present, U.S. Pat. No. 9,649,296", "result": "at least 10%"},
      {"measurement": "loss of the dexmedetomidine from the liquid composition", "setting": "plastic materials, U.S. Pat. Nos. 8,242,158, 8,648,106, 8,436,033, 8,338,470", "result": "up to 20%"}
    ]}
  ]
}
